Experimental findings from patent US10301314B2, “Compounds and methods for the prevention and treatment of tumor metastasis and tumorigenesis” (The United States of America, as represented by the …, priority 2011, dated 2019) are described below.

Like-named read-outs stand apart in the source and are kept apart here.

Data set [1] has as its system PC3M cell line that stably expresses GFP-PTB to mark PNCs. The data set is described as follows: High content assay for PNC detection (reduction of PNC prevalence). It counts as cell-based, human. The settings on record: Homo sapiens, PC-3M, PC3M GFP-PTB cells; for AC50: Table 3; for IC50: Table 4, 16 hrs incubation.
The test system of data set [2] is PC3M reporter cell line stably expressing the PTB-GFP. Put plainly: ATP quantitation assay (ATPLite). It counts as cell-based, human. Particulars: Homo sapiens, PC-3M, Table 4, PC3M cells, 24 hrs incubation.
Data set [3] concerns PC3M cells. The data set is described as follows: Tumor cell migration/invasion assay through 3D fibrillar collagen (Iuvo Single Microchannel Plate). In kind it is cell-based. Particulars: Homo sapiens, PC-3M, 120 h, 5 days. Here is the method:
High-content tumor cell migration assays in 3-dimensional extracellular matrices are powerful tools for modeling and understanding the biology of this critical step in the process of metastasis. However, most of the available methods are not amenable to the throughput required by studies of comparative pharmacology or small scale screening. For this reason, compounds were tested in BellBrook Labs™ automated high-content tumor cell invasion assays. A standard screening-sized plate with an array of embedded microchannels was designed and constructed from common thermoplastics.
PC3M cells were tested for invasion through 3D fibrillar collagen in the luvo Single Microchannel Plate, in the presence of varying levels of test compounds. Channels were prefilled with 820 nL of 3-dimensional type I collagen at 1 mg/mL, through the input port. Following gelation, 2,000 PC3M cells were seeded into the output port using growth media (RPMI+10% FBS with antibiotics) in a volume of 5 μL. Cells were incubated in a 37° C. incubator inside a humidified container to control evaporation (Bioassay dish, Corning). Media, including test compounds, was changed daily for 5 days. At the end of the assay, cells were fixed and stained with Hoechst 33342, then imaged with 4× objective under epifluorescence. Under these conditions, cells across the 140 μm height range of the microchannel can be reliably identified. Test compounds were serially diluted by a factor of 3 to produce 10 concentrations ranging from 50 or 100 μM to 2.5 nM. All assays were conducted in the presence of 0.1% DMSO. Four replicates were performed for all test concentrations. Each plate had 4 dose response curves, as well as 16 channels with no compound and 16 channels with 50 μM blebbistatin (positive control). Analysis was done by automatically cropping each image at the right edge of the channel and counting cells via the ‘count nuclei’ function on Metamorph (Molecular Devices). Non-linear regression analysis was performed with GraphPad Prism.

Data set [4] concerns PC3M cells. The data set is described as follows: Soft agar colony formation assay (anchorage independent growth). In kind it is cell-based, human. The settings on record: after 14 days; 3.8, 18.6 nM. Here is the method: Compound 2 was tested for its ability to affect anchorage independent growth in a soft agar assay, a stringent method to detect malignant transformation of cells in vitro. […] The left hand side of FIG. 1 illustrates a histogram representing the number and size of PC3M soft agar colonies after 14 days of treatment with compound 2 at two different concentrations. A clear reduction of the number of colonies of PC3M cells was observed, particularly at a compound concentration of 18.6 nM. The right hand side of FIG. 1 illustrates two representative images taken at two different regions of the soft agar medium after treatment with DMSO (vehicle) (top row), compound 2 at 3.8 nM (middle row), and compound 2 at 18.6 nM (bottom row).

Where [5] appears, read: PC3M cells in output port, read-out: Proliferation output port IC50.
The mark [6] stands for this setting: PC3M cells, 3D type I collagen, read-out: Invasion cell # IC50.

Usually AC50 stands for the concentration at which the activity in the assay is half-maximal. A high value points to activity only at high concentration. With `N=c1c2c(-c3ccccc3)c(-c3ccccc3)n(Cc3ccccc3)c2ncn1C1CCOCC1` [Compound 1], the AC50 in data set [1] came to 0.09 µM. Moreover, the IC50 in data set [1] is 0.03 µM; in data set [2], 152 µM; in the data set on PC3M cells [3] (setting [5]), 5.01 µM; in the data set on PC3M cells [3] (setting [6]) it was 3.16 µM.

For `N=c1c2c(-c3ccccc3)c(-c3ccccc3)n(Cc3ccccc3)c2ncn1[C@H]1CC[C@H](O)CC1` [Compound 2, trans-4-(7-Benzyl-4-imino-5,6-diphenyl-4,7-dihydro-3H-pyrrolo[2,3-d]pyrimidin-3-yl)cyclohexanol], the AC50 in data set [1] came out at 0.4 µM. The IC50 in data set [1] was determined as 0.024 µM; in data set [2], 19.2 µM; in the data set with PC3M cells [3] (setting [5]), 3.98 µM; in the data set with PC3M cells [3] (setting [6]), 3.16 µM. Moreover, in the data set with PC3M cells [4], the “cell viability in soft agar assay” value is “no impact on cell viability”. For the same compound, in the data set on PC3M cells [4], the “number of PC3M soft agar colonies” value is reported as “dose dependent reduction in the number of colonies”.
